Patent US9132291B2, “Water-in-oil emulsion compositions containing gellan gum for topical delivery of active ingredients to the skin or mucosa” (DFB Technology, Ltd., priority 2010, dated 2015)
Where a name gives a salt, the structure may show the parent alone.

Experiment: In-Vitro Release Test (Franz Cell diffusion apparatus, 0.45 um Durapore HVLP membrane)
Format: physicochemical
Settings: 0.5-6 hours at 35° C.
Procedure: A 0.45 um Durapore HVLP membrane was used between the donor and receptor compartments. The receptor fluid used for analysis of lidocaine HCl was 0.2M NaH2PO4/EtOH/SDS (69/30/1). The receptor fluid used for analysis of metronidazole was 600 mL Ethanol (USP) and 400 mL Phosphate Buffer (1.3 g Na2HPO4 and 1.5 g KH2PO4). The receptor fluid used for analysis of allantoin was 10 mM KH2PO4 buffer (pH=4.7). The sampling of the receptor fluid was performed at 0.5, 1, 2, 4 and 6 hours at 35° C. The concentration of the released actives in the collected samples of the receptor fluid was determined by HPLC analysis. The HPLC mobile phase used for analysis of lidocaine HCl was 0.2M NaH2PO4/EtOH/SDS (69/30/1). The HPLC mobile phase used for analysis of metronidazole was 600 mL Ethanol (USP) and 400 mL Phosphate Buffer (1.3 g Na2HPO4 and 1.5 g KH2PO4). The HPLC mobile phase used for analysis of allantoin was ACN/Water (90/10).

## CCN(CC)CC(=O)Nc1c(C)cccc1C [lidocaine HCl, Lidocaine HCl]
Formulas G, H, I (0%, 0.45%, 0.75% gellan gum; 2.0% lidocaine HCl) W/O emulsion, receptor fluid 0.2M NaH2PO4/EtOH/SDS (69/30/1), FIG. 5 and FIG. 6
  rate of release of lidocaine HCl: increased as the concentration of gellan gum increased

## Cc1ncc([N+](=O)[O-])n1CCO [metronidazole, Metronidazole]
Formulas A, B, C (0%, 0.45%, 0.75% gellan gum; 0.75% metronidazole) W/O emulsion, receptor fluid ethanol/phosphate buffer, FIG. 1 and FIG. 2
  rate of release of metronidazole: increased as the concentration of gellan gum increased

## NC(=O)NC1NC(=O)NC1=O (stereo not drawn) [allantoin, Allantoin]
Formulas D, E, F (0%, 0.45%, 0.75% gellan gum; 0.1% allantoin) W/O emulsion, receptor fluid 10 mM KH2PO4 buffer pH 4.7, FIG. 3 and FIG. 4
  rate of release of allantoin: increased as the concentration of gellan gum increased
